Laboratory results as given in the supplement of paper PMC10307832.

What was measured:
Experiment in all cases: relative viability (nuclei count vs DMSO), 5 days (fraction); higher = more cells survive
Linifanib = compound: Cc1ccc(F)c(NC(=O)Nc2ccc(-c3cccc4[nH]nc(N)c34)cc2)c1 [Linifanib]
Summary of the method: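 Lung cancer cell lines were seeded into 1536-well plates, kept overnight at 37 °C and pinned with five library-drug doses (not always all listed) spaced by √10. After 5 days, nuclei were Hoechst-stained, imaged at 4× and counted with MetaXpress. Viability is treated-well nuclei over vehicle-well nuclei, taken as a median across plates. Plates needed control CV below 25% and at least one doubling.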

Linifanib + Tozasertib = compound: Cc1ccc(F)c(NC(=O)Nc2ccc(-c3cccc4[nH]nc(N)c34)cc2)c1 [Linifanib] + Cc1cc(Nc2cc(N3CCN(C)CC3)nc(Sc3ccc(NC(=O)C4CC4)cc3)n2)n[nH]1 [Tozasertib] (partner 0.1 µM)
Summary of the method: (§1)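 Relative viability divides the nuclei count in treated wells by that in vehicle wells. Lung cancer cell lines were seeded in 1536-well plates, dosed by pin tool the next day, and fixed and stained after 5 days in one step with final 0.05% Triton X-100, 1% formaldehyde and 1 ug/ml Hoechst. Dosing was a single drug or a fixed anchor-drug dose plus five library-drug doses (not always all listed) in √10 steps, and values are medians of duplicate plates imaged at 4×.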

Linifanib + Palbociclib = compound: Cc1ccc(F)c(NC(=O)Nc2ccc(-c3cccc4[nH]nc(N)c34)cc2)c1 [Linifanib] + CC(=O)c1c(C)c2cnc(Nc3ccc(N4CCNCC4)cn3)nc2n(C2CCCC2)c1=O [Palbociclib] (partner 0.5 µM)
Summary of the method: as §1

Linifanib + Lapatinib = compound: Cc1ccc(F)c(NC(=O)Nc2ccc(-c3cccc4[nH]nc(N)c34)cc2)c1 [Linifanib] + CS(=O)(=O)CCNCc1ccc(-c2ccc3ncnc(Nc4ccc(OCc5cccc(F)c5)c(Cl)c4)c3c2)o1 [Lapatinib] (partner 2 µM)
Summary of the method: as §1

Linifanib + Pictilisib = compound: Cc1ccc(F)c(NC(=O)Nc2ccc(-c3cccc4[nH]nc(N)c34)cc2)c1 [Linifanib] + CS(=O)(=O)N1CCN(Cc2cc3nc(-c4cccc5[nH]ncc45)nc(N4CCOCC4)c3s2)CC1 [Pictilisib] (partner 1 µM)
Summary of the method: as §1

Linifanib + Dasatinib = compound: Cc1ccc(F)c(NC(=O)Nc2ccc(-c3cccc4[nH]nc(N)c34)cc2)c1 [Linifanib] + Cc1nc(Nc2ncc(C(=O)Nc3c(C)cccc3Cl)s2)cc(N2CCN(CCO)CC2)n1 [Dasatinib] (partner 0.075 µM)
Summary of the method: as §1

Cell Line | relative viability (Linifanib; 0.03162 µM) | relative viability (Linifanib; 0.1 µM) | relative viability (Linifanib; 0.3162 µM) | relative viability (Linifanib + Tozasertib; first compound 0.03162 µM) | relative viability (Linifanib + Tozasertib; first compound 0.1 µM) | relative viability (Linifanib + Tozasertib; first compound 0.3162 µM) | relative viability (Linifanib + Palbociclib; first compound 0.03162 µM) | relative viability (Linifanib + Palbociclib; first compound 0.1 µM) | relative viability (Linifanib + Palbociclib; first compound 0.3162 µM) | relative viability (Linifanib + Lapatinib; first compound 0.03162 µM) | relative viability (Linifanib + Lapatinib; first compound 0.1 µM) | relative viability (Linifanib + Lapatinib; first compound 0.3162 µM) | relative viability (Linifanib + Pictilisib; first compound 0.03162 µM) | relative viability (Linifanib + Pictilisib; first compound 0.1 µM) | relative viability (Linifanib + Pictilisib; first compound 0.3162 µM) | relative viability (Linifanib + Dasatinib; first compound 0.03162 µM) | relative viability (Linifanib + Dasatinib; first compound 0.1 µM) | relative viability (Linifanib + Dasatinib; first compound 0.3162 µM)
HCC-827 | 1 | 1.06 | 1.02 | 0.442 | 0.419 | 0.384 | 0.491 | 0.544 | 0.46 | 0.19 | 0.173 | 0.191 | 0.898 | 0.96 | 0.933 | 0.272 | 0.32 | 0.268
HOP-62 | 1.06 | 1.03 | 0.974 | 0.36 | 0.401 | 0.35 | 0.454 | 0.453 | 0.465 | 1.02 | 0.739 | 1.02 | 0.709 | 0.693 | 0.88 | 0.672 | 0.702 | 0.701
LC-2-ad | 0.996 | 0.996 | 0.88 | 0.416 | 0.445 | 0.472 | 0.499 | 0.471 | 0.421 | 1.06 | 1.04 | 0.883 | 0.379 | 0.57 | 0.437 | 0.618 | 0.871 | 0.489
LCLC-97TM1 | 1.15 | 1.02 | 0.919 | 0.205 | 0.231 | 0.189 | 0.212 | 0.243 | 0.196 | 1.51 | 0.984 | 0.858 | 0.208 | 0.196 | 0.169 | 0.887 | 1.04 | 0.678
LCLC-103H | 1.02 | 1.03 | 0.981 | 0.482 | 0.461 | 0.423 | 0.474 | 0.417 | 0.464 |  |  |  | 0.71 | 0.596 | 0.693 | 0.434 | 0.621 | 0.399
LK-2 | 1.05 | 1.12 | 0.965 | 0.155 | 0.177 | 0.2 | 0.564 | 1.01 | 0.565 | 0.931 | 1.06 | 0.915 | 0.495 | 0.537 | 0.489 | 0.308 | 0.349 | 0.403
LOU-NH91 | 0.979 | 1.07 | 0.951 | 0.713 | 0.693 | 0.68 | 0.551 | 0.517 | 0.51 | 0.772 | 0.828 | 0.747 | 0.498 | 0.523 | 0.557 | 0.61 | 0.612 | 0.558
LU99A | 1.02 | 1.03 | 0.853 | 0.277 | 0.306 | 0.317 | 0.457 | 0.464 | 0.408 | 1.07 | 1.06 | 1.05 | 0.317 | 0.349 | 0.325 | 0.547 | 0.66 | 0.488
LXF-289 | 1.04 | 1.04 | 0.84 | 0.185 | 0.173 | 0.172 | 0.668 | 0.612 | 0.564 | 0.914 | 0.936 | 0.831 | 0.849 | 0.874 | 0.784 | 0.29 | 0.288 | 0.236
NCI-H23 | 0.98 | 1.06 | 0.811 | 0.366 | 0.39 | 0.329 | 0.486 | 0.57 | 0.487 | 0.991 | 1.14 | 1.01 | 0.542 | 0.524 | 0.523 | 0.736 | 0.928 | 0.84
NCI-H322M | 1 | 0.939 | 0.956 | 0.5 | 0.515 | 0.407 | 0.488 | 0.487 | 0.441 | 0.582 | 0.539 | 0.537 | 0.513 | 0.491 | 0.557 | 0.253 | 0.256 | 0.216
NCI-H358 | 0.896 | 1.16 | 0.924 | 0.113 | 0.112 | 0.106 | 0.132 | 0.126 | 0.114 | 0.531 | 0.543 | 0.433 | 0.407 | 0.37 | 0.32 | 0.175 | 0.204 | 0.205
NCI-H441 | 1.1 | 1.27 | 0.974 | 0.48 | 0.654 | 0.678 | 0.222 | 0.24 | 0.228 |  |  |  | 0.493 | 0.519 | 0.479 | 0.646 | 0.705 | 0.639
NCI-H460 | 0.984 | 1.03 | 0.92 | 0.139 | 0.436 | 0.475 | 0.133 | 0.187 | 0.152 | 1.1 | 1.11 | 0.697 | 0.397 | 0.448 | 0.317 | 0.577 | 0.6 | 0.508
NCI-H520 | 0.862 | 1.07 | 0.955 | 0.382 | 0.456 | 0.418 | 0.22 | 0.216 | 0.238 | 1 | 1.03 | 0.895 | 0.29 | 0.304 | 0.315 | 0.19 | 0.206 | 0.208
NCI-H596 | 0.94 | 1.03 | 0.884 | 0.798 | 0.815 | 0.9 |  |  |  | 1.05 | 1.08 | 1.01 | 0.378 | 0.375 | 0.446 | 0.58 | 0.612 | 0.671
NCI-H1792 | 0.935 | 0.944 | 0.928 |  |  |  | 0.611 | 0.666 | 0.621 | 0.961 | 0.973 | 0.891 | 0.213 | 0.311 | 0.333 | 0.622 | 0.774 | 0.819
